Measurements taken from patent US20050003422A1, “Methods for assessing and treating cancer” (priority 2003, published 2005).

System: AML patients
Experiment: Clinical response of relapsed or refractory AML patients treated with the FTI
Format: in vivo, human
Details: of a total of 199 evaluable AML patients; 600 mg b.i.d. oral, first 21 days of each 28 day cycle
Experimental: In the nonprophetic examples, AML patients were administered 600 mg of (R)-6-[amino(4-chlorophenyl)(1-methyl-1H-imidazol-5-yl)methyl]-4-(3-chlorophenyl)-1-methyl-2(1H)-quinolinone) (referred to as Zamestra™) at a starting oral dose of 600 mg b.i.d. for the first 21 days of each 28 day cycle in AML. Subjects were enrolled into two cohorts, those with relapsed AML and those with refractory AML. A total of […] patients (135 relapsed and 117 refractory) were treated.
Anti-leukemic activity is defined as any bone marrow blast count less than 5% or a reduction in bone marrow blasts by at least half.
The average value of the site and DCL blast count measurements were calculated and a Student's t-test was performed to investigate if blast counts correlated with patient response in the AML patients. […] Chi-squared analysis for all evaluable patients also found a significant correlation between high blast counts and resistance to treatment (Ω^2=9.53).

With `Cn1cncc1[C@@](N)(c1ccc(Cl)cc1)c1ccc2c(c1)c(-c1cccc(Cl)c1)cc(=O)n2C` [Zamestra] the “evaluable patients who had a CR, CRp, PR, or SD” value was 24.
